Target: Serine/threonine-protein kinase pim-1 (Homo sapiens) (UniProt P11309)
Assay: inhibition of PIM1 peptide phosphorylation – biochemical, Z'-LYTE FRET, direct format, recombinant human, dose response (AID 1671353)

IC50: 1.97 µM
SMILES: Brc1c(Br)c(Br)c2n[nH]nc2c1Br
